Experiments:
[1] = system: AVEFA; test: Pre-emergence herbicidal action against AVEFA; assay type: in vivo, Avena fatua; details: 320 g/ha, scored visually after 3 weeks vs untreated controls
Outline: (§1)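 Pre-emergence soil-surface application: WP/EC in water, 600 to 800 L/ha, + 0.2% wetting agent, onto soil-covered seeds in sandy loam. Greenhouse, 3 wk. Visual % activity vs untreated (100% = dead).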

[2] = system: DIGSA; test: Post-emergence herbicidal action against DIGSA; assay type: in vivo, Digitaria sanguinalis; details: 80 g/ha, visual assessment about 3 weeks after treatment vs untreated controls
Outline: (§2)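 Sow in sandy loam and grow in the greenhouse for 2 to 3 weeks to the one-leaf stage. Spray the compound as an aqueous suspension or emulsion with 0.2% wetting agent, 600 to 800 l/ha water rate. Hold about 3 weeks, then score damage visually versus controls.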

[3] = system: SETVI; test: Post-emergence herbicidal action against SETVI; assay type: in vivo, Setaria viridis; details: 80 g/ha, visual assessment about 3 weeks after treatment vs untreated controls
Outline: as §2

[4] = system: AVEFA; test: Post-emergence herbicidal action against AVEFA; assay type: in vivo, Avena fatua; details: 80 g/ha, visual assessment after about 3 weeks
Outline: as §2

[5] = system: DIGSA; test: Pre-emergence herbicidal action against DIGSA; assay type: in vivo, Digitaria sanguinalis; details: 320 g/ha, scored visually after 3 weeks vs untreated controls
Outline: as §1

[6] = system: ECHCG; test: Pre-emergence herbicidal action against ECHCG; assay type: in vivo, Echinochloa crus-galli; details: 320 g/ha, scored visually after 3 weeks vs untreated controls
Outline: as §1

[7] = system: VIOTR; test: Pre-emergence herbicidal action against VIOTR; assay type: in vivo, Viola tricolor; details: 320 g/ha
Outline: as §1

[8] = system: MATIN; test: Pre-emergence herbicidal action against MATIN; assay type: in vivo; details: 320 g/ha
Excerpt: (§3) Seeds of monocotyledonous and dicotyledonous weed plants and crop plants are laid out in sandy loam soil in wood-fiber pots and covered with soil. The compounds of the invention, formulated in the form of wettable powders (WP) or as emulsion concentrates (EC), are then applied to the surface of the covering soil as aqueous suspension or emulsion at a water application rate equating to 600 to 800 L/ha with addition of 0.2% wetting agent.
(§4) After the treatment, the pots are placed in a greenhouse and kept under good growth conditions for the trial plants. The damage to the test plants is scored visually after a test period of 3 weeks by comparison with untreated controls (herbicidal activity in percent (%): 100% activity=the plants have died, 0% activity=like control plants).

[9] = system: SETVI; test: Pre-emergence herbicidal action against SETVI; assay type: in vivo, Setaria viridis; details: 320 g/ha, scored visually after 3 weeks vs untreated controls
Outline: as §1

[10] = system: ECHCG; test: Post-emergence herbicidal action against ECHCG; assay type: in vivo, Echinochloa crus-galli; details: 80 g/ha, visual assessment about 3 weeks after treatment vs untreated controls
Outline: as §2

[11] = system: LOLRI; test: Pre-emergence herbicidal action against LOLRI (Table 8, titled post-emergence at 320 g/ha); assay type: in vivo, Lolium rigidum; details: table stands in the pre-emergence section
Outline: as §1

[12] = system: ABUTH; test: Post-emergence herbicidal action against ABUTH; assay type: in vivo, Abutylon threophrasti; details: 80 g/ha, visual assessment about 3 weeks after treatment vs untreated controls
Method: Seeds of monocotyledonous and dicotyledonous weed and crop plants are laid out in sandy loam soil in wood-fiber pots, covered with soil and cultivated in a greenhouse under good growth conditions. 2 to 3 weeks after sowing, the test plants are treated at the one-leaf stage. The compounds of the invention, formulated in the form of wettable powders (WP) or as emulsion concentrates (EC), are then sprayed onto the green parts of the plants as aqueous suspension or emulsion at a water application rate equating to 600 to 800 l/ha with addition of 0.2% wetting agent. After the test plants have been left to stand in the greenhouse under optimal growth conditions for about 3 weeks, the action of the preparations is assessed visually in comparison to untreated controls (herbicidal action in percent (%): 100% activity=the plants have died, 0% activity=like control plants).

[13] = system: ALOMY; test: Post-emergence herbicidal action against ALOMY; assay type: in vivo, Alopecurus myosuroides; details: 80 g/ha, visual assessment after about 3 weeks
Outline: as §2

[14] = system: LOLRI; test: Post-emergence herbicidal action against LOLRI; assay type: in vivo, Lolium rigidum; details: 80 g/ha, visual assessment about 3 weeks after treatment vs untreated controls
Outline: as §2

[15] = system: ALOMY; test: Pre-emergence herbicidal action against ALOMY; assay type: in vivo, Alopecurus myosuroides; details: 320 g/ha, scored visually after 3 weeks vs untreated controls
Outline: as §1

[16] = system: AMARE; test: Pre-emergence herbicidal action against AMARE; assay type: in vivo, Amaranthus retroflexus; details: 320 g/ha
Outline: as §1

[17] = system: POLCO; test: Pre-emergence herbicidal action against POLCO; assay type: in vivo, Polygonum convolvulus; details: 320 g/ha
Excerpt: as §3, §4

[18] = system: VERPE; test: Pre-emergence herbicidal action against VERPE; assay type: in vivo, Veronica persica; details: 320 g/ha
Outline: as §1

| Structure (SMILES) | Pre-emergence action against AVEFA in % [1] | Post-emergence action against DIGSA in % [2] | Post-emergence action against SETVI in % [3] | Post-emergence action against AVEFA in % [4] | Pre-emergence action against DIGSA in % [5] | Pre-emergence action against ECHCG in % [6] | Pre-emergence action against VIOTR in % [7] | Pre-emergence action against MATIN in % [8] | Pre-emergence action against SETVI in % [9] | Post-emergence action against ECHCG in % [10] | Pre-emergence herbicidal action against LOLRI in % [11] | Post-emergence action against ABUTH in % [12] | Post-emergence action against ALOMY in % [13] | Post-emergence action against LOLRI in % [14] | Pre-emergence action against ALOMY in % [15] | Pre-emergence action against AMARE in % [16] | Pre-emergence action against POLCO in % [17] | Pre-emergence action against VERPE in % [18] |
| --- | --- | --- | --- | --- | --- | --- | --- | --- | --- | --- | --- | --- | --- | --- | --- | --- | --- | --- |
| CC#Cc1cc(F)c(C2=C(O)C3(CCC(COCC)C3)NC2=O)c(OC)c1 (stereo not shown) [Example I-42] | 90% | 100% | 100% | 90% | 100% | 80% | 80% | 80% | 100% | 100% | 100% | 80% | 90% | 90% | – | – | – | – |
| C=CCOCC1CCC2(C1)NC(=O)C(c1c(C)cc(C#CC)cc1Cl)=C2O (stereo not shown) [Example I-46] | 90% | 90% | 100% | – | 100% | 100% | 100% | 90% | 100% | 100% | 100% | – | – | 90% | 100% | 100% | 90% | – |
| CC#Cc1cc(Br)c(C2=C(O)C3(CCC(COC)C3)NC2=O)c(OCC)c1 (stereo not shown) [Example I-69] | 90% | 90% | – | – | 100% | 100% | 90% | – | 100% | 100% | 100% | – | 100% | 100% | 100% | – | 100% | 80% |
| C=CCOCC1CCC2(C1)NC(=O)C(c1c(C)cc(C#CC)cc1Br)=C2O (stereo not shown) [Example I-70] | 100% | 90% | 100% | – | 100% | 100% | 100% | 80% | 100% | 100% | 100% | – | 90% | 90% | 100% | – | 80% | – |
| CC#Cc1cc(Br)c(C2=C(OC(=O)C(C)C)C3(CCC(COC)C3)NC2=O)c(OC)c1 (stereo not shown) [Example P-04] | 100% | 100% | 100% | – | 100% | – | 100% | 90% | 100% | 100% | 100% | 80% | 100% | 100% | 100% | 80% | – | 90% |
